Experiment [1] has as its target T1, human QR2 (Homo sapiens, UniProt P16083).
T1 sequence (P16083 1-231): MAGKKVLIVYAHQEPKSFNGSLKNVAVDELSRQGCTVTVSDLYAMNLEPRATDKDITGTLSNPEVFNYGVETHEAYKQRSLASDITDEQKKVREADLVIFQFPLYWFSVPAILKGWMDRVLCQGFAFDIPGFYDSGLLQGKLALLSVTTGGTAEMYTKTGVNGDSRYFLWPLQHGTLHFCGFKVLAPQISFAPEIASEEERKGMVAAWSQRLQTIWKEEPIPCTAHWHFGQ
Kind of experiment: ITC. It is filed as binding. The settings on record: for ΔG / −TΔS / ΔH: single-site binding model; for ΔH: 50 mM Hepes pH 7.5, 100 mM NaCl, 1 mM TCEP.

Experiment [2] concerns the target T1, human QR2. Briefly: Steady-state kinetics, mechanism of inhibition of QR2. The settings on record: fixed NMeH 100 μM, various menadione. The class given is biochemical.
The target of experiment [3] is T1, human QR2. Conditions: read-out: IC50 value, Mammalian cells; cytosolic fraction of mammalian cell lines overexpressing human QR2, dihydrobenzylnicotinamide as co-substrate; ref [37]; cited from earlier work.
The target of experiment [4] is T2, human QR2 (quinone reductase 2) (human), P16083.
T2 chain: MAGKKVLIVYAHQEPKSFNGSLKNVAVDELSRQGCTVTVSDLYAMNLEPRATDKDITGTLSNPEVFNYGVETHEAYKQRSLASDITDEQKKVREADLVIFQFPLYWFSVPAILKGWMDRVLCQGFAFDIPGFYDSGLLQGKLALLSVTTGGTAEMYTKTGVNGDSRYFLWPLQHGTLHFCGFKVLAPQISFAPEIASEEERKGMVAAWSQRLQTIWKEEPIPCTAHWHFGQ
Briefly: crystal structure. Conditions: remark: other sources report otherwise.

What is called IC50 is the concentration that inhibits the measured activity by half. As usually defined, the stoichiometry N is a count of units in the complex or per binding partner.

Where “and” joins values, the source holds several entries; their conditions need not be identical. Equal values may be shown once.

Take `COc1ccc2[nH]cc(CCNC(C)=O)c2c1` [Melatonin]: at human QR2 [1], the “h (Hill coefficient, a measure of the stoichiometry of binding)” value is on record as 0.8; the ΔG was -8.07 ± 0.3 kcal/mol; the “−TΔS” value is 2.38 ± 0.11 kcal/mol; the ΔH is -10.45 ± 0.4 kcal/mol. Moreover, the ΔH on human QR2 [1] (listed as melatonin) was -10.45 kcal/mol. In addition, the “Ki (uncompetitive against menadione)” value on human QR2 [2] is 92 µM and 91.6 ± 4.6 µM.
On to `Oc1ccc(/C=C/c2cc(O)cc(O)c2)cc1` [Resveratrol], for which, at human QR2 [1], the “h (Hill coefficient, a measure of the stoichiometry of binding)” value stood at 0.9; the ΔG is -9.8 ± 0.50 kcal/mol; the “−TΔS” value turned out to be 5.01 ± 0.61 kcal/mol; the ΔH is -14.6 ± 0.15 kcal/mol.
As to `CC(=O)NCCc1c[nH]c2ccc(O)cc12` [N-Acetyl-5-hydroxytryptamine], the IC50 on human QR2 [3] was 99 ± 14 µM.
Take `COc1ccc2[nH]c(I)c(CCNC(C)=O)c2c1` [2-Iodomelatonin]: on human QR2 [1], the “h (Hill coefficient, a measure of the stoichiometry of binding)” value turned out to be 0.8; the ΔG was -8.5 ± 0.38 kcal/mol; the “−TΔS” value was -0.65 ± 0.24 kcal/mol; the ΔH was -7.85 ± 0.62 kcal/mol. The molecule further registered a ΔH at human QR2 [1] (listed as 2-iodomelatonin) of -7.85 kcal/mol.

B1: human QR2 (quinone reductase 2), P16083 1-231 (enzyme)
chain: MAGKKVLIVYAHQEPKSFNGSLKNVAVDELSRQGCTVTVSDLYAMNLEPRATDKDITGTLSNPEVFNYGVETHEAYKQRSLASDITDEQKKVREADLVIFQFPLYWFSVPAILKGWMDRVLCQGFAFDIPGFYDSGLLQGKLALLSVTTGGTAEMYTKTGVNGDSRYFLWPLQHGTLHFCGFKVLAPQISFAPEIASEEERKGMVAAWSQRLQTIWKEEPIPCTAHWHFGQ
For B1, the stoichiometry N in experiment [4] amounted to 2.

The record behind these values is article PMC3265362 (Biochemical Journal, 2008).
